According to patent EP0121972A2, “N-aryl-alpha-amino-carboxamides” (JANSSEN PHARMACEUTICA N.V., priority 1983, dated 1984):

System: multifocal ventricular arrhythmia
Experiment: Antiarrhythmic effect in dogs with ventricular arrhythmia after coronary artery ligation
Assay type: in vivo
Details: given intravenously; for minimal effective dose: Canis lupus familiaris, iv, lowest effective dose normalizing the cardial rhythm, about 16 hours after ligation of the anterior descendent branch of the left coronary artery, under neuroleptanalgesia, read-out: Antiarrhythmic effects in dogs LED in mg/kg body weight; for Antiarrhythmic effects in dogs duration: duration of action at the lowest effective dose, coronary-ligated dogs
Method: The compounds of formula (I) and their pharmaceutically acceptable acid addition salts and possible stereochemically isomeric forms thereof show excellent antiarrhythmic properties and as such they are useful in the normalization of irregular cardial rhythms. The antiarrhythmic effect of the compounds of this invention is clearly illustrated in the following experiment in dogs. The test was carried out under neuroleptanalgesia (1 ml per 10 kg body weight of fentanyl (0.4 mg/ml) and droperidol (20 mg/ml)).
The test compounds were given intravenously after a control period of 30 minutes.

Compound | minimal effective dose | Antiarrhythmic effects in dogs duration
CO[C@@H]1CCCC[C@H]1N1CCC(C(=O)Nc2c(C)cccc2C)(N(C)C)CC1 (relative stereo) [compound 18, trans-4-(dimethylamino)-N-(2,6-dimethylphenyl)-l-(2-methoxycyclo-hexyl)-4-piperidinecarboxamide] | 0.08 mg/kg | 150 min
Cc1cccc(C)c1NC(=O)C1(N(C)C)CCN([C@@H]2CCC[C@H]2O)CC1 (relative stereo) [compound 91] | 0.08 mg/kg | 220 min
CCN(C)C1(C(=O)Nc2c(C)cccc2C)CCN(C(C)C(N)=O)CC1 (centres unmarked) [compound 174] | 1.25 mg/kg | 120 min
Cc1cccc(C)c1NC(=O)C1(N)CCN(C2CCCC2)CC1 [compound 190, 4-amino-l-cyclopentyl-N-(2,6-dimethylphenyl)-4-piperidinecarboxamide] | 1.25 mg/kg | 110 min
Cc1cccc(C)c1NC(=O)C1(N(C)C)CCN(CC2CC2)CC1 [compound 135] | 0.16 mg/kg | 190 min
CCN(CC)C1(C(=O)Nc2c(C)cccc2C)CCN(C(C)COC)CC1 (centres unmarked) [compound 140] | 0.31 mg/kg | 220 min
Cc1cccc(C)c1NC(=O)C1(N(C)C)CCN(CCO)CC1 [compound 167, 4-(dimethylamino)-N-(2,6-dimethylphenyl)-1-(2-hydroxyethyl)-4-piperidinecarboxamide] | 0.31 mg/kg | 220 min
Cc1cccc(C)c1NC(=O)C1(N(C)C)CCN([C@@H]2CCC[C@H]2NCc2ccccc2)CC1 (relative stereo) [compound 129, trans-4-(dimethylamino)-N-(2,6-dimethylphenyl)-l-[2-[(phenylmethyl)amino]cyclopentyl]-4-piperidinecarboxamide] | 0.08 mg/kg | –
CCN(CC)CCN1CCC(C(=O)Nc2c(C)cccc2C)(N(C)C)CC1 [compound 163, 1-[2-(diethylamino)ethyl]-4-(dimethylamino)-N-(2,6-dimethylphenyl)-4-piperidinecarboxamide] | 0.31 mg/kg | 220 min
Cc1cccc(C)c1NC(=O)C1(N(C)C)CCN(C2CCCC2)CC1 [compound 130, l-cyclopentyl-4-(dimethylamino)-N-(2,6-dimethylphenyl)-4-piperidinecarboxamide] | 0.16 mg/kg | 65 min
Cc1cccc(C)c1NC(=O)C1(N(C)C)CCN([C@@H]2CCCC[C@H]2O)CC1 (relative stereo) [compound 89, trans-4-(dimethylamino)-N-(2,6-dimethylphenyl)-1-(2-hydroxycyclohexyl)-4-piperidinecarboxamide] | 0.04 mg/kg | 240 min
Cc1cc(N(C)C)cc(C)c1NC(=O)C1(N(C)C)CCN([C@@H]2CCCC[C@H]2O)CC1 (relative stereo) [compound 125] | 0.08 mg/kg | 165 min
CCN1CCC(O)C(N2CCC(C(=O)Nc3c(C)cccc3C)(N(C)C)CC2)C1 (centres unmarked) [compound 212] | 0.31 mg/kg | 60 min
Cc1cccc(C)c1NC(=O)C1(N(C)C)CCN(CC(O)CN(Cc2ccccc2)Cc2ccccc2)CC1 (centres unmarked) [compound 96, 1-[3-[bis(phenylmethyl)amino]-2-hydroxypropyl]-4-(dimethylamino)-N-(2,6-dimethylphenyl)-4-piperidinecarboxamide] | 0.31 mg/kg | 40 min
Cc1cccc(C)c1NC(=O)C1(N(C)C)CCN([C@@H]2CCNC[C@H]2O)CC1 (relative stereo) [compound 210, trans-4-(dimethylamino)-N-(2,6-dimethylphenyl)-3'-hydroxy-[1,4'-bipiperidine]-4-carboxamide] | 0.16 mg/kg | 25 min
